Measurements from article PMC4995043, “A Diverse Family of Host-Defense Peptides (Piscidins) Exhibit Specialized Anti-Bacterial and Anti-Protozoal Activities in Fishes” (PLoS ONE, 2016).
≈ marks a conversion by molar mass, not a printed value. Like-named read-outs stand apart in the source and are kept apart here. Where a SMILES comes first, the peptide text is derived from it.

Tests used:
[1] = tested on: E. coli; type: cell-based, Escherichia coli; conditions: 18 h
Source text: (§1) Fish bacterial pathogens, Streptococcus iniae (stock 00–1425; isolated from rainbow trout, Oncorhynchus mykiss), Lactococcus garvieae (stock 00–1422; multiple antibiotic-resistant strain), Vibrio anguillarum (stock 91–3057; ATCC 19264), and Aeromonas salmonicida (stock 91–3053; ATCC® 7965™), and human bacterial pathogens, Enterococcus faecalis (stock 00–1403; ATCC 29212), Staphylococcus aureus (ATCC 29213), Shigella flexneri (stock 00–1402; ATCC 12022), and Escherichia coli (stock 00–1405; ATCC 25922), were cultured from frozen stocks stored in glycerol at -80°C. L. garvieae, A. salmonicida, E. faecalis, S. aureus, and S. flexneri were grown in Mueller Hinton Broth (MHB); the MHB was supplemented with 1% NaCl for L. garvieae. S. iniae, and V. anguillarum were grown in Tryptic Soy Broth (TSB) supplemented with 1.5% NaCl and E. coli was grown in Luria-Bertani Broth (LB). The fish and human pathogens were grown at 25°C and 37°C, respectively, while shaking at 200 rpm for 18 h except for S. iniae, which was grown for 48 h. The cultures were passaged at least three times each when in log phase to ensure that they had acclimated to culture.
(§2) The minimum inhibitory concentrations (MIC) and minimum bactericidal concentrations (MBC) were determined as previously described following standard methods recommended by the […] for MIC90 and MBC determinations of clinical isolates with some modifications. Overnight bacterial cultures were diluted to 80–88% transmittance in their appropriate medium. The cultures were then diluted again to 1:200 and 100 μL was pipetted into each of 3 wells in 11 columns of a 96-well plate (Corning, Inc., Tewksbury, MA), the 12th column loaded with media without bacteria as a sterility control and blank.
(§3) The synthetic piscidin peptides (piscidins 1, 4, and 7 from striped bass; piscidins 1, 5, and 6 from white bass; and piscidin 3 corresponding to both striped bass and white bass) were prepared by diluting the 4 mg/mL stocks to 2 mg/mL in 0.2% bovine serum albumin (BSA) + 0.01% acetic acid. These were then serially diluted to a concentration of 3.9 μg/mL in the same diluent. The piscidin dilutions were added to the first 10 columns of the 96-well plate containing bacteria, […] was loaded with diluent only to act as a positive growth control. The final concentrations tested were 200 μg/mL to 0.39 μg/mL. The plates were incubated with shaking at 200 rpm for 18 h, except for S. iniae, which was incubated for 48 h. Fish pathogens and human pathogens were incubated at 25°C and 37°C, respectively. […] The MIC was taken as the lowest concentration of piscidin that reduced growth when compared to the growth control by more than 50%. To determine the MBC, 20 μL of the media from the wells of the three lowest piscidin concentrations that had no visible growth of bacteria were plated onto the appropriate media plates and incubated as described above. Colonies were counted to determine whether growth was equal to or less than 0.1% of the colony forming units (CFUs) in the original inoculum. The MBC was defined as the lowest concentration of piscidin that killed at least 99.9% of the CFUs in the original inoculum.

[2] = tested on: Tetrahymena pyriformis; conditions: piscidin 1 not among peptides tested, previously observed results, cited from earlier work; for PC100 (100% parasiticidal concentration): lowest concentration that killed all T. pyriformis
Source text: Table 4 Minimum parasiticidal concentrations (PCmin) and 100% parasiticidal concentrations (PC100) of various synthetic hybrid striped bass piscidins against the ciliated protozoan, Tetrahymena pyriformis. | column: PCmin (uM) / SB P1; PC100 (uM) / SB P1; PC100 (uM) / WB P1

[3] = tested on: Lactococcus garvieae; type: cell-based; conditions: 18 h
Source text: as §1, §2, §3

[4] = tested on: Staphylococcus aureus; type: cell-based; conditions: 37°C, 18 h; for MIC: S. aureus ATCC 29213, Gram +, human pathogen, MHB, OD630, growth reduced by more than 50%; for MBC: S. aureus ATCC 29213, kills at least 99.9% of CFUs of original inoculum
Source text: as §1, §2, §3

[5] = tested on: Shigella flexneri; type: cell-based; conditions: S. flexneri ATCC 12022; kills at least 99.9% of CFUs of original inoculum; 37°C, 18 h
Source text: as §1, §2, §3

[6] = tested on: Streptococcus iniae; type: cell-based; conditions: 48 h; for MIC: S. iniae stock 00–1425, Gram +, fish pathogen, TSB + 1.5% NaCl, OD630, MIC = lowest concentration reducing growth by more than 50%, 3 wells, 200 to 0.39 μg/mL tested
Source text: as §1, §2, §3

[7] = tested on: Vibrio anguillarum; type: cell-based; conditions: 18 h
Source text: as §1, §2, §3

[8] = tested on: Aeromonas salmonicida; type: cell-based; conditions: 18 h
Source text: as §1, §2, §3

[9] = tested on: Enterococcus faecalis; type: cell-based; conditions: 18 h
Source text: as §1, §2, §3

[10] = L. garvieae stock 00–1422, kills at least 99.9% of CFUs of original inoculum, 25°C
[11] = S. iniae stock 00–1425, lowest concentration killing at least 99.9% of CFUs of original inoculum, plated from MIC wells, 25°C
[12] = E. faecalis ATCC 29212, kills at least 99.9% of CFUs of original inoculum, 37°C

For `CC[C@H](C)[C@H](NC(=O)CNC(=O)[C@H](CCCNC(=N)N)NC(=O)[C@H](Cc1ccccc1)NC(=O)[C@@H](NC(=O)[C@H](Cc1c[nH]cn1)NC(=O)[C@H](Cc1c[nH]cn1)NC(=O)[C@H](Cc1ccccc1)NC(=O)[C@@H](N)Cc1ccccc1)[C@@H](C)CC)C(=O)N[C@H](C(=O)N[C@@H](Cc1c[nH]cn1)C(=O)N[C@H](C(=O)NCC(=O)N[C@@H](CCCCN)C(=O)N[C@H](C(=O)N[C@H](C(=O)N[C@@H](Cc1c[nH]cn1)C(=O)N[C@@H](CCCNC(=N)N)C(=O)N[C@@H](CC(C)C)C(=O)N[C@H](C(=O)N[C@H](C(=O)NCC(=O)O)[C@@H](C)O)C(C)C)[C@@H](C)CC)[C@@H](C)O)C(C)C)C(C)C` [SB P1] (H-FFHHIFRGIVHVGKTIHRLVTG-OH), the MIC ([1]; E. coli ATCC 25922, Gram -, human pathogen, LB, 37°C, OD630, growth reduced by more than 50%) is listed as 4.86 µM (≈ 12.5 µg/mL), the “PC100 (100% parasiticidal concentration)” value [2] is listed as 5 µM and the “PCmin (minimum parasiticidal concentration)” value ([2]; lowest concentration that killed at least one T. pyriformis) is listed as 2.5 µM. For the same molecule, the MIC ([3]; L. garvieae stock 00–1422 (multiple antibiotic-resistant), Gram +, fish pathogen, MHB + 1% NaCl, 25°C, OD630, growth reduced by more than 50%) was 1.22 µM, the MBC [3, 10] was 1.22 µM (≈ 3.14 µg/mL) and the MIC [4] was 2.43 µM (≈ 6.25 µg/mL). The MBC [4] was 2.43 µM (≈ 6.25 µg/mL), the MBC [5] was 4.86 µM (≈ 12.5 µg/mL) and the MIC ([6]; 25°C) was 1.22 µM. The MBC [6, 11] was 1.22 µM (≈ 3.14 µg/mL), the MIC ([7]; V. anguillarum ATCC 19264, Gram -, fish pathogen, TSB + 1.5% NaCl, 25°C, OD630, growth reduced by more than 50%) was 2.43 to 4.86 µM and the MBC ([7]; V. anguillarum ATCC 19264, kills at least 99.9% of CFUs of original inoculum, 25°C) was 9.72 µM (≈ 25 µg/mL). For the same molecule, the MIC ([8]; A. salmonicida ATCC 7965, Gram -, fish pathogen, MHB, 25°C, OD630, growth reduced by more than 50%) was greater than 77.76 µM, the MIC ([9]; E. faecalis ATCC 29212, Gram +, human pathogen, MHB, 37°C, OD630, growth reduced by more than 50%) was 1.22 µM (≈ 3.14 µg/mL) and the MBC [9, 12] was 2.43 µM (≈ 6.25 µg/mL).

In the case of `CC[C@H](C)[C@H](NC(=O)CNC(=O)[C@H](CCCNC(=N)N)NC(=O)[C@H](Cc1ccccc1)NC(=O)[C@@H](NC(=O)[C@H](Cc1c[nH]cn1)NC(=O)[C@H](Cc1c[nH]cn1)NC(=O)[C@@H](NC(=O)[C@@H](N)Cc1ccccc1)[C@@H](C)CC)[C@@H](C)CC)C(=O)N[C@H](C(=O)N[C@@H](Cc1c[nH]cn1)C(=O)N[C@@H](C)C(=O)NCC(=O)N[C@@H](CCCNC(=N)N)C(=O)N[C@@H](CO)C(=O)N[C@H](C(=O)NCC(=O)N[C@@H](CCCNC(=N)N)C(=O)N[C@@H](Cc1ccccc1)C(=O)N[C@@H](CC(C)C)C(=O)N[C@H](C(=O)NCC(=O)O)[C@@H](C)O)[C@@H](C)CC)C(C)C` [SB/WB P3] (H-FIHHIFRGIVHAGRSIGRFLTG-OH; N-terminus and C-terminus assumed), the MBC [1] is reported as 80.26 µM (≈ 200 µg/mL), the MIC [1] is reported as 80.26 µM (≈ 200 µg/mL) and the MBC [3] is reported as 5.02 µM (≈ 12.5 µg/mL). For the same molecule, the MBC [6] was 2.51 µM (≈ 6.25 µg/mL), the MBC [7] was 20.06 µM (≈ 50 µg/mL) and the MBC [8] was greater than 80.26 µM. The MIC [8] was greater than 80.26 µM, the MBC [9] was 10.03 µM (≈ 25 µg/mL) and the MIC [9] was 1.26 µM (≈ 3.14 µg/mL).

For `CC[C@H](C)[C@H](NC(=O)CNC(=O)[C@H](CCCNC(=N)N)NC(=O)[C@H](Cc1ccccc1)NC(=O)[C@@H](NC(=O)[C@H](Cc1c[nH]cn1)NC(=O)[C@H](Cc1c[nH]cn1)NC(=O)[C@H](Cc1ccccc1)NC(=O)[C@@H](N)Cc1ccccc1)[C@@H](C)CC)C(=O)N[C@H](C(=O)N[C@@H](Cc1c[nH]cn1)C(=O)N[C@H](C(=O)NCC(=O)N[C@@H](CCCCN)C(=O)N[C@H](C(=O)N[C@H](C(=O)N[C@@H](Cc1c[nH]cn1)C(=O)N[C@@H](CCCCN)C(=O)N[C@@H](CC(C)C)C(=O)N[C@H](C(=O)N[C@H](C(=O)NCC(=O)O)[C@@H](C)O)C(C)C)[C@@H](C)CC)[C@@H](C)O)C(C)C)C(C)C` [WB P1] (H-FFHHIFRGIVHVGKTIHKLVTG-OH; N-terminus and C-terminus assumed), the MBC [1] is listed as greater than 78.61 µM, the MIC [1] is listed as 4.91 µM (≈ 12.5 µg/mL) and the “PC100 (100% parasiticidal concentration)” value [2] is listed as 2.48 µM. It also gave an MBC [3, 10] of 2.46 µM (≈ 6.26 µg/mL), an MIC [4] of 2.46 µM (≈ 6.26 µg/mL) and an MBC [4] of 2.46 µM (≈ 6.26 µg/mL). For the same molecule, the MIC ([6]; 25°C) was 2.46 µM, the MBC [6, 11] was 2.46 µM (≈ 6.26 µg/mL) and the MBC [7] was 9.83 µM (≈ 25 µg/mL). The MBC [8] was greater than 78.61 µM, the MIC [8] was greater than 78.61 µM and the MIC [9] was 1.23 µM (≈ 3.13 µg/mL). It also gave an MBC [9, 12] of 2.46 µM (≈ 6.26 µg/mL).
